Patent publication US20250195671A1, “COVALENT ANESTHETIC-POLYMER CONJUGATES FOR PROLONGED LOCAL ANESTHESIA” (priority 2017, published 2025)
Like-named read-outs stand apart in the source and are kept apart here.

Experiments:
sciatic nerve [1] = settings: rat, in vivo
[2] = test system: sciatic nerve and surrounding tissues; settings: rat, in vivo
sciatic nerve [3] = test system: sciatic nerve
rat = settings: in vivo
rat sciatic nerve = settings: rat model; cited from earlier work
[4] = cited from earlier work
[5] = in vivo; cited from earlier work

For `N=C1NC(O)[C@H]2[C@@H]3OC4(O)OC(C(O)[C@@]2(N1)[C@@H]4O)[C@]3(O)CO` (some centres unmarked) [TTX, Tetrodotoxin], the “blockade, % of animals” value (sciatic nerve [1]) was 100%, the “nerve blockade, % of animals” value (sciatic nerve [1]) was 100% and the “successful block, % of animals” value (sciatic nerve [1]) was 100%. The “Median inflammation score (range), Day 4” value [2] was 0.5(0-1), the “Median inflammation score (range), Day 14” value [2] was 0(0-0) and the “Median myotoxicity score (range), Day 4” value [2] was 0(0-0). The “Median myotoxicity score (range), Day 14” value [2] was 0.5(0-1)^ and the “myotoxicity and inflammation, microscopic examination” value [2] was “did not reveal significant myotoxicity and inflammation”.
With `O=C1OC2(c3ccc(O)cc3Oc3cc(O)ccc32)c2ccccc21` [fluorescein sodium] the “fluorescence in the nerve” value (sciatic nerve [3]; 0.25 mg in 0.5 mL of PBS, 1 and 4 hours) was “No fluorescence was observed in the nerve”, the “fluorescence in the nerve” value (sciatic nerve [3]; 0.25 mg in 0.5 mL of PEG200, four hours after injection) was “none” and the “fluorescence in the nerve” value (sciatic nerve [3]; 0.25 mg in 0.5 mL of PEG200, one hour after injection) was “fluorescence was observed throughout the nerve”.
For poly(glycerol sebacate) [TgD8], the “Contralateral block (%)” value (rat) was 0% and the “Mortality (%)” value (rat) was 0%.
For `COc1cc(CNC(=O)CCCC/C=C/C(C)C)ccc1O` [capsaicin, 8-Methyl-N-vanillyl-trans-6-nonenamide], the “minimum effective dose to produce nerve blockade” value (rat sciatic nerve) is given as “approximately 50 μg”, the solubility ([4]; alcohol, fats and oils) is given as “freely soluble” and the solubility ([4]; cold water) is given as “insoluble”. The pharmacokinetic half-life [5] was “approximately 24 hours”.
